In ChEMBL document CHEMBL5055650, “4-Acyl Pyrrole Capped HDAC Inhibitors: A New Scaffold for Hybrid Inhibitors of BET Proteins and Histone Deacetylases as Antileukemia Drug Leads” (J Med Chem, 2021):
Calls of active or inactive are those of the source. The rule behind the calls is not given here.

Key:
TALL-1 [1] = assay: Anticancer activity against human TALL-1 cells assessed as cell growth inhibition by CellTiter-Glo luminescent assay; format: functional, cell-based
HPBALL [2] = assay: Induction of apoptosis in human HPBALL cells assessed as accumulation at sub-G1 phase at 5 uM after 72 hrs by flow cytometry; format: functional, cell-based
[3] = molecular target: Bromodomain-containing protein 2 (Homo sapiens, UniProt P25440); assay: Binding affinity to human BRD2 domain 2 assessed as dissociation constant by isothermal titration calorimetry assay
HPBALL [4] = assay: Anticancer activity against human HPBALL cells assessed as cell growth inhibition by CellTiter-Glo luminescent assay; format: functional, cell-based
MOLT-4 = assay: Cytotoxicity against human MOLT-4 cells assessed as cell viability at 5 uM by CellTiter-Glo luminescent assay; format: functional; conditions: read-out: Activity
HL-60 = assay: Anticancer activity against human HL-60 cells assessed as cell growth inhibition by CellTiter-Glo luminescent assay; format: functional, cell-based
TALL-1 [5] = assay: Cytotoxicity against human TALL-1 cells assessed as cell viability at 5 uM by CellTiter-Glo luminescent assay; format: functional; conditions: read-out: Activity
HAL-01 = assay: Anticancer activity against human HAL-01 cells assessed as cell growth inhibition by CellTiter-Glo luminescent assay; format: functional, cell-based
K562 = assay: Anticancer activity against human K562 cells assessed as cell growth inhibition by CellTiter-Glo luminescent assay; format: functional, cell-based
[6] = molecular target: T1, Histone deacetylase (Homo sapiens) (UniProt Q13547+O15379+Q9UBN7+Q92769+Q9UQL6+Q8WUI4+Q9BY41+Q96DB2+P56524+Q9UKV0+Q969S8); assay: Inhibition of HDAC in human K562 cells assessed as increase in acetylated histone H3 measured after 48 hrs by Western blot analysis; format: cell-based
Histone deacetylase 2 = Histone deacetylase 2 (Homo sapiens, UniProt Q92769); assay: Inhibition of human HDAC2 assessed as target activity using fluorogenic substrate ZMAL for 90 min by microplate reader at 355nm
HPBALL [7] = assay: Induction of apoptosis in human HPBALL cells assessed as increase in caspase3/7 activity at 5 uM after 48 hrs by luminescent based Glo assay; format: functional, cell-based
[8] = molecular target: T1, Histone deacetylase (Homo sapiens); assay: Inhibition of HDAC in human K562 cells assessed as increase in acetylated alpha-tubulin measured after 48 hrs by Western blot analysis; format: cell-based
[9] = molecular target: T2, Protein deacetylase HDAC6 (Homo sapiens, UniProt Q9UBN7); assay: Inhibition of human recombinant HDAC6 assessed as fluorescence using fluorogenic substrate ZMAL incubated for 90 min by microplate reader
T2 sequence (Q9UBN7 whole entry): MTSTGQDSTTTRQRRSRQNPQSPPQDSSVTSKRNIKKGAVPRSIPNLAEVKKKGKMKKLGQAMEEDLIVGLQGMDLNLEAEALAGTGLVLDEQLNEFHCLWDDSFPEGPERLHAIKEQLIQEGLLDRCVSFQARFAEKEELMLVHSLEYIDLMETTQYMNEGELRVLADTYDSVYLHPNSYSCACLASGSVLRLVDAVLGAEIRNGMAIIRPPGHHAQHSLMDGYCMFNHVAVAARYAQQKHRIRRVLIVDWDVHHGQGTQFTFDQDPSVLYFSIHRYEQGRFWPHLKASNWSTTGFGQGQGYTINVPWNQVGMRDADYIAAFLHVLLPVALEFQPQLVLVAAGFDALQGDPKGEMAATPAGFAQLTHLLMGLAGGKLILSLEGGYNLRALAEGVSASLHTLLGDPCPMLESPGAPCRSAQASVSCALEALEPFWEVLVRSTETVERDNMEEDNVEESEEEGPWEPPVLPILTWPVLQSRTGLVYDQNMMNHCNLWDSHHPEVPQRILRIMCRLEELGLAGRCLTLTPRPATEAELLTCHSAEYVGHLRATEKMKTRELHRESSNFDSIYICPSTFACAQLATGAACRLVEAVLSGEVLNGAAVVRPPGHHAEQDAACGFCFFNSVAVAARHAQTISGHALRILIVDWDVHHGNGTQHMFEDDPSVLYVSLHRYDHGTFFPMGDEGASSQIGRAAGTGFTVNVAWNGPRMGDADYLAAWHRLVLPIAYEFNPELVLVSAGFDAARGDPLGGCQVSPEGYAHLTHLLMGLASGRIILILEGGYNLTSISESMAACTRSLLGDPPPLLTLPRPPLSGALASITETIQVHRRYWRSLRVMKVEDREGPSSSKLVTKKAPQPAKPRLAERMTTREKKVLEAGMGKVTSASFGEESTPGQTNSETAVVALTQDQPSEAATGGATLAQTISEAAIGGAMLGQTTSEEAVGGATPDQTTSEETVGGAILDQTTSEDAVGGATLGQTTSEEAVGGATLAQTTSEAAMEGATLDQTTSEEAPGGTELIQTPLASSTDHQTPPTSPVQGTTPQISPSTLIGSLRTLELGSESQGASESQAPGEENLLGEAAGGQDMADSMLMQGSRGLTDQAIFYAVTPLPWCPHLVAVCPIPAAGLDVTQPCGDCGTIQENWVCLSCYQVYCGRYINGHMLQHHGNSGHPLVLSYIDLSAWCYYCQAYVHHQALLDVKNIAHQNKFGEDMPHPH

[10] = molecular target: T3, Bromodomain-containing protein 3 (Homo sapiens, UniProt Q15059); assay: Binding affinity to human BRD3 domain 1 assessed as dissociation constant by isothermal titration calorimetry assay
HPBALL [11] = assay: Induction of apoptosis in human HPBALL cells assessed as decrease in MYC protein levels at 5 uM after 24 hrs by Western blot analysis; format: functional, cell-based
REH = assay: Anticancer activity against human REH cells assessed as cell growth inhibition by CellTiter-Glo luminescent assay; format: functional, cell-based
[12] = molecular target: Bromodomain-containing protein 4 (Homo sapiens, UniProt O60885); assay: Binding affinity to human BRD4 domain 1 (unknown origin) assessed as dissociation constant by isothermal titration calorimetry assay; conditions: read-out: Kd
Histone deacetylase 1 = Histone deacetylase 1 (Homo sapiens, UniProt Q13547); assay: Inhibition of human recombinant HDAC1 assessed as fluorescence using fluorogenic substrate ZMAL incubated for 90 min by microplate reader
[13] = molecular target: T3, Bromodomain-containing protein 3; assay: Binding affinity to human BRD3 domain 2 assessed as dissociation constant by isothermal titration calorimetry assay

Chain of Histone deacetylase 2 (Q92769 whole entry): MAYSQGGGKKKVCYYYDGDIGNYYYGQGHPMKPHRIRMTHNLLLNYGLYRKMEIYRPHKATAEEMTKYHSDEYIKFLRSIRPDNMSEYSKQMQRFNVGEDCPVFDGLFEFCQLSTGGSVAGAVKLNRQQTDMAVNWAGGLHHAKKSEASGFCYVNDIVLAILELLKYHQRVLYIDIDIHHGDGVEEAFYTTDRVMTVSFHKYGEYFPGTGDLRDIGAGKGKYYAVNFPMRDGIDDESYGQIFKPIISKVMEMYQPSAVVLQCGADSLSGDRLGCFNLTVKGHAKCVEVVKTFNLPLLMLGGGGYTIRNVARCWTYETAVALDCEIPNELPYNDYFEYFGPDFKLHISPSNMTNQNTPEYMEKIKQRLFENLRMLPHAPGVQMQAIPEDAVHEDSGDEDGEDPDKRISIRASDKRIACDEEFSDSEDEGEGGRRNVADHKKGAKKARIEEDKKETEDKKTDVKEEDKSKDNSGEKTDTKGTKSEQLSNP
T3 sequence (Q15059 whole entry, the tested form may be a part): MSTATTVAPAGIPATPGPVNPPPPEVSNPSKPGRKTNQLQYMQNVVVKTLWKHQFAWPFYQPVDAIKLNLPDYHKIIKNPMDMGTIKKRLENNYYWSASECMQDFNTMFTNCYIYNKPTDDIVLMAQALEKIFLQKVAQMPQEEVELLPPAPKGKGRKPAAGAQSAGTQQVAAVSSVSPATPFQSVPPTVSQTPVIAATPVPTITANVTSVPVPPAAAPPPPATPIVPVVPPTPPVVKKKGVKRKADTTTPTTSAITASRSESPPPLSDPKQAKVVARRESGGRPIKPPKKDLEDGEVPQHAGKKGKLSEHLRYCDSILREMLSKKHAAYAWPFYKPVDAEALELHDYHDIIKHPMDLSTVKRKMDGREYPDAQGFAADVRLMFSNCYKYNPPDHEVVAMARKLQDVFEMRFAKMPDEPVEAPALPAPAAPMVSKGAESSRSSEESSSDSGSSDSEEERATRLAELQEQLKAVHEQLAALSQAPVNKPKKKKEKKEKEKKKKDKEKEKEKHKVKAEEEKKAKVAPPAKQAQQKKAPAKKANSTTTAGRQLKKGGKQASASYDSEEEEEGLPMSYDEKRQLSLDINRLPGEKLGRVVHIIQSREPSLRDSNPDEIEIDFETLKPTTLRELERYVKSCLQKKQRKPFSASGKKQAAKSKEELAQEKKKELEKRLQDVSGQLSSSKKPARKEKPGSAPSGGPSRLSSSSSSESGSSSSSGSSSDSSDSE
Chain of Bromodomain-containing protein 2 (P25440 whole entry, the tested form may be a part): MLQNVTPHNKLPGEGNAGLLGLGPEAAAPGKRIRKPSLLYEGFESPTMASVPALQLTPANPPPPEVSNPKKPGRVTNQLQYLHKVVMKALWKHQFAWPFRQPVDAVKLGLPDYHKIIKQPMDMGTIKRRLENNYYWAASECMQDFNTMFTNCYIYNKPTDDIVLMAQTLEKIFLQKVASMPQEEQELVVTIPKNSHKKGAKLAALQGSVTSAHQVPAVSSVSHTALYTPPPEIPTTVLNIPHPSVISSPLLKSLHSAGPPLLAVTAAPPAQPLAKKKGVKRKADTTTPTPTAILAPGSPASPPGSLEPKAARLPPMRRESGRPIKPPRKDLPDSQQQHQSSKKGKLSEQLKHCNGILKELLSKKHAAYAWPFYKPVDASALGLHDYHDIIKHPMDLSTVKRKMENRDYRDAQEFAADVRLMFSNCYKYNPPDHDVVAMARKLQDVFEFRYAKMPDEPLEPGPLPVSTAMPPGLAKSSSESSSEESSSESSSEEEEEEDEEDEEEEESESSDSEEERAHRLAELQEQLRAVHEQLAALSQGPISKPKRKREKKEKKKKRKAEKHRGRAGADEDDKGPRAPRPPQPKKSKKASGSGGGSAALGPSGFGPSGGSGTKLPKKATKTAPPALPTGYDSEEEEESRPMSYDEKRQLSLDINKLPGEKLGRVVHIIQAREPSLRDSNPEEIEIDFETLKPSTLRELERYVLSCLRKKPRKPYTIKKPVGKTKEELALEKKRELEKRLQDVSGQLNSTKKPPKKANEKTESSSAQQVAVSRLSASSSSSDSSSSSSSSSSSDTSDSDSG
Chain of Histone deacetylase 1 (Q13547 whole entry, the tested form may be a part): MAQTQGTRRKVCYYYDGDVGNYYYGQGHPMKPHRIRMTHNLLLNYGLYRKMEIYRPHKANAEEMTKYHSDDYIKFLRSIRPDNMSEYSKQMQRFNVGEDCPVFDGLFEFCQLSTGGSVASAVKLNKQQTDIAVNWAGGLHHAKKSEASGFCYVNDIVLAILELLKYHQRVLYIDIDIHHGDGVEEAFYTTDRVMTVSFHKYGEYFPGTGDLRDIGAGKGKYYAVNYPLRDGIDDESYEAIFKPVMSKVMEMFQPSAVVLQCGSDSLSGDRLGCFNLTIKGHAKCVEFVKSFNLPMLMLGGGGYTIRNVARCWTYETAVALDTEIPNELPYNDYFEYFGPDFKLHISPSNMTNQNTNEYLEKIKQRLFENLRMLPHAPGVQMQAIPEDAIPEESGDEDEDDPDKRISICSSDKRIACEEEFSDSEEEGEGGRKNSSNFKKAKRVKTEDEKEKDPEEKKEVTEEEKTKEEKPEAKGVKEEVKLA

Kd [3] [µM]	IC50 (HL-60) [µM]	IC50 (K562) [µM]	Activity [6]	IC50 (Histone deacetylase 2) [µM]	Activity [8]	IC50 [9] [µM]	Kd [10] [µM]	Kd [12] [µM]	IC50 (Histone deacetylase 1) [µM]	Kd [13] [µM]	Structure (SMILES)	IC50 (TALL-1 [1]) [µM]	Activity (HPBALL [2])	IC50 (HPBALL [4]) [µM]	viability at 5 µM (MOLT-4) [%]	viability at 5 µM (TALL-1 [5]) [%]	IC50 (HAL-01) [µM]	Activity (HPBALL [7])	Activity (HPBALL [11])	IC50 (REH) [µM]	also measured
3.3	7.82	3.4	Active	0.359	Active	0.042	5.65	2.98	0.179	7.55	CCc1c(C(=O)Nc2cc(/C=C/C(=O)NO)ccc2OC)[nH]c(C)c1C(C)=O	2.88	Active	6.79	3.5	15.1	> 25		Active	> 25	inhibition (HPBALL [7]): Active
3.1	4.63	2.9	Active	0.208	Active	0.046	1.5	0.79	0.093	3.75	COc1ccc(S(=O)(=O)n2ccc(/C=C/C(=O)NO)c2)cc1NC(=O)c1[nH]c(C)c2c1CCCCC2=O	2.33	Active	6.31	4	10.6	6.41	Active	Active	9.76	

Structure (SMILES)	Kd [3] [µM]	IC50 (HL-60) [µM]	IC50 (K562) [µM]	Activity [6]	IC50 (Histone deacetylase 2) [µM]	Activity [8]	IC50 [9] [µM]	Kd [10] [µM]	Kd [12] [µM]	IC50 (Histone deacetylase 1) [µM]	Kd [13] [µM]	IC50 (TALL-1 [1]) [µM]	Activity (HPBALL [2])	IC50 (HPBALL [4]) [µM]	viability at 5 µM (MOLT-4) [%]	viability at 5 µM (TALL-1 [5]) [%]	IC50 (HAL-01) [µM]	Activity (HPBALL [7])	Activity (HPBALL [11])	IC50 (REH) [µM]	also measured
Cc1[nH]c(C(=O)Nc2cc(S(=O)(=O)N3CCOCC3)ccc2OCCCCCCCC(=O)NO)c2c1C(=O)CCCC2	0.067	2.75	5.99	Active	0.534	Active	0.067	0.037	0.076	0.163	0.1	2.93	Active	7.13	1.7	50	5.93	Active	Active	7.79	
